Consider eight compounds from US8822692B2, “Diterpenoid derivatives endowed of biological properties” (SIGMA-TAU Industrie Farmaceutiche Riunite S.p.A., priority 2010, dated 2014).

Marks after values point to notes of the source that are not given here.

Common to all, as to type: in vivo, rat
Experiment [1] concerns rats bearing an α-adducin mutation (NA strain). Nature of the experiment: Anti-hypertensive effect in mutant α-adducin congenic rats (NA), six week oral treatment. The following applies: six weeks; for SBP: vehicle 164.4; for HR: vehicle 412. The method, then:
Anti-hypertensive property of various derivatives were looked at in vivo in three animal models of hypertension (i.e., mutant α-adducin congenic rats, ouabain-hypertensive rats and Milan hypertensive rats). The compound of example 4 was administered by oral gavage at various doses for six weeks to rats bearing an α-adducin mutation (NA strain). Such mutation leading to hypertension and organ complication (Bianchi G., et al., Proc. Natl. Acad. Sci., 1994, 91, 3999) was obtained by introgressing a segment of chromosome 14 containing the locus of α-adducin from Milan Hypertensive rats (MHS), having the mutant variant, into Milan Normotensive rats (MNS), carrying the wild type α-adducin variant (Tripodi G., et al., Biochem. Biophys. Res. Commun., 2004, 324, 562).

Experiment [2] concerns Ouabain-Hypertensive Rats (OHR). Kind of experiment: Anti-hypertensive effect in ouabain-hypertensive rats (OHR), six week oral treatment. Conditions: six weeks. The method, then: (§1) Anti-hypertensive property of various derivatives were looked at in vivo in three animal models of hypertension (i.e., mutant α-adducin congenic rats, ouabain-hypertensive rats and Milan hypertensive rats).
Hypertension was provoked by subcutaneous ouabain infusion (15 μg/kg/day) in normotensive rats as already described (Ferrari P., et al., J. Pharmacol. Exp. Ther., 1998, 285, 83).

The test system of experiment [3] is Milan Hypertensive Rats (MHS). Kind of experiment: Anti-hypertensive effect in Milan hypertensive rats (MHS), six week oral treatment. Conditions: for effect on SBP in MHS rats (in words): at the dose tested; for SBP / HR: oral gavage 10 μg/kg/day, six weeks; for SBP: vehicle 169 (experiment A), 164 (experiment B); for HR: vehicle 348 (experiment A), 363 (experiment B).
Text: as §1
Milan hypertensive rats is a rat model of genetic hypertension sustained by α-adducin mutation and increased circulating levels of endogenous ouabain (Ferrari P., et al., Hypertension: Pathophysiology, Diagnosis and Management, (Volume 1). Laragh J H and Brenner B M (Eds.), Raven Press Publishers, New York, USA, 1261-1279, (1995).
The compounds were administered by oral gavage (10 μg/kg/day) for six weeks.

The next experiment deals with OHR rats. Kind of experiment: Urinary protein excretion and renal function in OHR rats. Here is the method: The effect of the compound of example 4 on urinary protein excretion was investigated. Increased levels of circulating endogenous ouabain not only associate with hypertension but also may affect renal function and increase the risk of renal failure and proteinuria (Stella P., et al., J. Int. Med., 2008, 263, 274) which represent major organ complications associated to hypertension.
OHR rats were orally treated with the compound of example 4 at 0.1 μg/kg/day for 6 weeks. At the end of the treatment, rats were allocated in single metabolic cages for 24 h urine collection.
Proteinuria and urinary creatinine were measured by commercial kits (Sentinel). Rats were sacrificed and blood was collected for plasma creatinine measurement.

Where [4] appears, read: oral gavage 0.1 μg/kg/day once a day, experiment A, vehicle 173.
Where [5] appears, read: oral gavage 0.1 μg/kg/day once a day, experiment A, vehicle 387.
The mark [6] stands for this setting: oral gavage 1 μg/kg/day once a day, experiment A, vehicle 173.
The mark [7] stands for this setting: oral gavage 1 μg/kg/day once a day, experiment A, vehicle 387.

As for `CC(C)c1ccc2c(c1)CCC1C(C)(/C=N/O[C@@H]3CCNC3)CCCC21C.O=C(O)/C=C/C(=O)O` (stereo partly drawn) [Example 4, (E)-15-((R)-3-Pyrrolidinyloxyimino)-13-isopropylpodocarpa-8,11,13-triene fumarate], the SBP is recorded as 150.6* mmHg in experiment [1] (oral gavage 1 μg/kg/day); 150.6* mmHg in experiment [1] (oral gavage 10 μg/kg/day); 147.5** mmHg in experiment [1] (oral gavage 100 μg/kg/day); 157** mmHg in experiment [2] (setting [4]); 153** mmHg in experiment [2] (setting [6]). Besides, the HR was found to be 415 beats/min in experiment [1] (oral gavage 1 μg/kg/day); 425 beats/min in experiment [1] (oral gavage 10 μg/kg/day); 421 beats/min in experiment [1] (oral gavage 100 μg/kg/day); 382 beats/min in experiment [2] (setting [5]); 380 beats/min in experiment [2] (setting [7]). Further, the “effect on SBP in MHS rats (in words)” value in experiment [3] is on record as “not effective on SBP”. In addition, the “urinary protein excretion in OHR rats (in words)” value in the experiment on OHR rats (0.1 μg/kg/day) is given as “significantly reduced the urinary protein excretion”. For the same compound, the Urinary creatinine in the experiment with OHR rats (oral 0.1 μg/kg/day, 6 weeks, 24 h urine, OHR vehicle 33.7, saline controls 36.1) is 35.6 mg/24 h. Also, the Proteinuria with OHR rats (oral 0.1 μg/kg/day, 6 weeks, 24 h urine, OHR vehicle 51.6 ± 5, saline controls 35.6) was 42** mg/24 hr. In addition, in the experiment on OHR rats (oral 0.1 μg/kg/day, 6 weeks, OHR vehicle 3.51, saline controls 3.1), the Plasma creatinine came to 3.59 mg/dL.
Turning to `CC(C)c1ccc2c(c1)CCC1C(C)(/C=N/O[C@H]3CCNC3)CCCC21C.O=C(O)/C=C/C(=O)O` (stereo partly drawn) [Example 5, (E)-15-((S)-3-Pyrrolidinyloxyimino)-13-isopropylpodocarpa-8,11,13-triene fumarate], the SBP in experiment [2] (setting [4]) is given as 154** mmHg; in experiment [3], 155* mmHg. In addition, the HR in experiment [2] (setting [5]) is 390 beats/min; in experiment [3], 367 beats/min.
Regarding `CC(C)c1ccc2c(c1)CCC1C(C)(C=NOC3CCNCC3)CCCC21C.O=C(O)C=CC(=O)O` (stereo not shown) [Example 6, (E)-15-(4-Piperidinyloxyimino)-13-isopropylpodocarpa-8,11,13-triene fumarate], the SBP in experiment [2] (setting [6]) turned out to be 166 mmHg. The compound further had an HR in experiment [2] (setting [7]) of 392 beats/min.
On to `CC(C)c1ccc2c(c1)C(=O)C[C@H]1[C@](C)(/C=N/OCCN)CCC[C@]21C.O=C(O)/C=C/C(=O)O` [Example 12, (E)-15-(2-Aminoethoxyimino)-13-isopropylpodocarpa-8,11,13-triene-7-one fumarate], for which the SBP in experiment [2] (oral gavage 10 μg/kg/day once a day, experiment B, vehicle 171) is listed as 156** mmHg. Also, the HR in experiment [2] (oral gavage 10 μg/kg/day once a day, experiment B, vehicle 377) amounted to 380 beats/min. Besides, in experiment [3], the “effect on SBP in MHS rats (in words)” value is recorded as “significantly reduced SBP”, the SBP is 161* mmHg and the HR is recorded as 347 beats/min.
As for `CC(C)c1ccc2c(c1)CCC1C(C)(/C=C\CCCN)CCCC21C.O=C(O)/C=C/C(=O)O` (stereo not shown) [Example 23, (Z)-15-(4-Aminobutyliden)-13-isopropylpodocarpa-8,11,13-triene fumarate], the SBP in experiment [2] (setting [6]) was 159** mmHg. Besides, the HR in experiment [2] (setting [7]) is on record as 370 beats/min.
`CC(C)c1ccc2c(c1)CCC1C(C)(CCCCCN)CCCC21C.O=C(O)/C=C/C(=O)O` (stereo not shown) [Example 25, 15-(4-Aminobutyl)-13-isopropylpodocarpa-8,11,13-triene fumarate] yielded an SBP in experiment [2] (setting [4]) of 164 mmHg. In experiment [2] (setting [5]), the HR came to 395 beats/min.
Compound `CC(N)CCCCC1(C)CCCC2(C)c3ccc(C(C)C)cc3CCC12.O=C(O)/C=C/C(=O)O` (stereo not shown) [Example 26, 15-(4-Aminopentyl)-13-isopropylpodocarpa-8,11,13-triene fumarate] returned an SBP in experiment [2] (setting [6]) of 164 mmHg. The compound also had an HR in experiment [2] (setting [7]) of 374 beats/min.
For `CC(C)c1ccc2c(c1)CCC1C(C)(COCCCN)CCCC21C.O=C(O)/C=C/C(=O)O` (stereo not shown) [Example 27, 15-(3-Aminopropoxy)-13-isopropylpodocarpa-8,11,13-triene fumarate], the SBP in experiment [2] (setting [6]) is 156** mmHg; in experiment [3], 156* mmHg. The figures for the HR in experiment [2] (setting [7]) and in experiment [3] were 390 beats/min and 367 beats/min, respectively. For the same compound, the “effect on SBP in MHS rats (in words)” value in experiment [3] is “significantly reduced SBP”.
